Laboratory results reported in the NIST ThermoML archive (doi:10.1016/j.tca.2004.12.015).

Assay: molar heat capacity at constant pressure
Settings: 101.33 kPa, Crystal 2, Vacuum adiabatic calorimetry

N#CCCNc1ccccc1 [3-anilinopropanenitrile]
Settings	molar heat capacity at constant pressure [J/K/mol]
83 K	52.6
83.11 K	52.8
85.94 K	53.3
88 K	53.8
88.94 K	54.1
91.87 K	55.3
93 K	55
94.73 K	54.7
97.54 K	55.3
98 K	56
100.3 K	55.4
103 K	57
103.01 K	56
105.67 K	57.9
108 K	57.6
108.29 K	58.1
110.86 K	58.6
113 K	58.4
113.39 K	59.7
115.91 K	59.1
118 K	59.1
118.39 K	59.9
120.86 K	59.7
123 K	60.1
123.29 K	60.2
125.69 K	61.3
128 K	61.3
128.08 K	61.2
130.44 K	61.4
132.78 K	62
133 K	62.6
135.1 K	62.8
137.39 K	63.4
138 K	64.3
139.66 K	64.3
141.91 K	65
143 K	66
144.13 K	67.1
146.35 K	66.9
148 K	67.8
148.54 K	67.5
150.73 K	68.2
152.89 K	68.6
153 K	69.6
155.03 K	69.6
157.16 K	70.4
158 K	71.3
159.28 K	71.7
161.38 K	72.6
163 K	73.1
163.47 K	73
165.54 K	73.7
167.59 K	74.3
168 K	74.7
169.63 K	75.2
171.66 K	76
173 K	76.2
173.68 K	77
175.7 K	77.8
177.67 K	78.2
178 K	77.8
179.65 K	78.9
181.61 K	79.9
183 K	79.5
183.57 K	81.2
185.51 K	81.6
187.45 K	82.1
188 K	81.5
189.37 K	83
191.29 K	84
193 K	84
193.19 K	84
195.09 K	84.8
196.97 K	84.8
198 K	86.5
198.84 K	86.5
200.68 K	88.1
202.52 K	88.1
203 K	89.8
204.36 K	90.6
206.19 K	92.3
208 K	94
208.02 K	93.1
209.84 K	94.8
211.66 K	96.4
213 K	98.9
213.46 K	97.3
215.26 K	98.9
217.05 K	101
218 K	105
218.84 K	102
220.61 K	105
222.38 K	107
223 K	111
224.14 K	111
225.88 K	112
227.6 K	116
228 K	118
229.29 K	121
230.95 K	124
232.59 K	126
233 K	125
234.22 K	129
235.85 K	131
237.47 K	132
238 K	132
239.08 K	136
240.67 K	140
242.24 K	141
243 K	139
243.78 K	144
245.31 K	146
246.85 K	146
248 K	146
248.39 K	147
249.91 K	148
251.45 K	149
252.99 K	150
253 K	151
254.53 K	150
256.06 K	150
257.59 K	151
258 K	156
259.11 K	153
260.62 K	155
